Here are results for four molecules from ChEMBL document CHEMBL1201862, “PubChem BioAssay data set” (2004).

The target in test [1] is Focal adhesion kinase 1 (Homo sapiens, UniProt Q05397). It counts as functional.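 Note: measured as one member of a kinome panel.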
In test [2] the target is Cyclin-dependent kinase 19 (Homo sapiens, UniProt Q9BWU1). Description: Navigating the Kinome. Panel member name: CDC2L6. It counts as functional.
Test [3] can be described thus: THP-1 cell cytotoxicity, cytotoxicity control, set 6 (AID 602433). The note with it: Mycobacterium tuberculosis. It counts as functional.
A short description of test [4]: Vero cell cytotoxicity, cytotoxicity control for M. tuberculosis inhibitor project, purified and synthesized samples, set 8 (AID 602431). The note with it: Mycobacterium tuberculosis. It counts as functional.
A short description of test [5]: HepG2 cell cytotoxicity, cytotoxicity control, set 6 (AID 602432). It counts as functional. The note with it: Mycobacterium tuberculosis.
Test [6] deals with INS1. Description: protection from cytokine-driven beta-cell apoptosis, dose response, JC-1 fluorescence, INS-1E, dry powder, set 2 (AID 488867). It counts as functional, cell-based. The note with it: Rattus norvegicus.
Test [7] in a line: inhibitors of cytokine-induced nitrite release, dose response, cell-based, Griess absorbance, INS-1E, dry powder, set 3 (AID 488870). The format is functional. The note with it: Rattus norvegicus.
For test [8], the system named is INS1. The test is described as follows: protection from cytokine-induced mitochondrial depolarization, dose response, cell-based, INS-1E, JC-1 fluorescence ratio, dry powder (AID 488931). It counts as functional. The note with it: Rattus norvegicus.
Test [9] concerns INS1. The test is described as follows: protection of INS-1E cells from cytokine death, dose response, ATP luminescence, dry powder (AID 488844). It counts as functional, cell-based. The note with it: Rattus norvegicus.
Test [10] addresses T1, Caspase-3 (Homo sapiens, UniProt P42574).
T1 sequence (P42574 whole entry): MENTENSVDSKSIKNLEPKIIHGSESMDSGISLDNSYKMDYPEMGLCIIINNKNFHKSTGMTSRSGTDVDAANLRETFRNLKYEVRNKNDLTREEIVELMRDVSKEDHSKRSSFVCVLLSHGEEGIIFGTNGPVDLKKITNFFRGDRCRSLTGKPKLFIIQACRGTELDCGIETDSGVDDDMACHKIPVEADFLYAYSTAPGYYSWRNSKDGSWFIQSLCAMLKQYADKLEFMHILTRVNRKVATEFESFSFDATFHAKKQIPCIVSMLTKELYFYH
The test is described as follows: caspase-3 inhibitors as off-family protease, SAR follow-up, selectivity assay for SENP protease inhibitor project, biochemical, luminescence, set 2 (AID 588599). It counts as functional.

For test [11], the target named is T2, Sentrin-specific protease 8 (Homo sapiens, UniProt Q96LD8).
T2 sequence (Q96LD8 whole entry): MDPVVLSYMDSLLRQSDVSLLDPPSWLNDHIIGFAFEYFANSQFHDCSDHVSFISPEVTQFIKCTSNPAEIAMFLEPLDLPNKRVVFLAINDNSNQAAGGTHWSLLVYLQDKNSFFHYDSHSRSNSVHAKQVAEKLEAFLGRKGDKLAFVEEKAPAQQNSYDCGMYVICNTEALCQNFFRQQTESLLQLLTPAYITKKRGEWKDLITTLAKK
The test is described as follows: SENP8 protease inhibitors, SAR follow-up, biochemical, luminescence, set 2 (AID 588601). It counts as functional.

Test [12] concerns the target T3, Sentrin-specific protease 6 (Homo sapiens, UniProt Q9GZR1).
T3 sequence (Q9GZR1 whole entry): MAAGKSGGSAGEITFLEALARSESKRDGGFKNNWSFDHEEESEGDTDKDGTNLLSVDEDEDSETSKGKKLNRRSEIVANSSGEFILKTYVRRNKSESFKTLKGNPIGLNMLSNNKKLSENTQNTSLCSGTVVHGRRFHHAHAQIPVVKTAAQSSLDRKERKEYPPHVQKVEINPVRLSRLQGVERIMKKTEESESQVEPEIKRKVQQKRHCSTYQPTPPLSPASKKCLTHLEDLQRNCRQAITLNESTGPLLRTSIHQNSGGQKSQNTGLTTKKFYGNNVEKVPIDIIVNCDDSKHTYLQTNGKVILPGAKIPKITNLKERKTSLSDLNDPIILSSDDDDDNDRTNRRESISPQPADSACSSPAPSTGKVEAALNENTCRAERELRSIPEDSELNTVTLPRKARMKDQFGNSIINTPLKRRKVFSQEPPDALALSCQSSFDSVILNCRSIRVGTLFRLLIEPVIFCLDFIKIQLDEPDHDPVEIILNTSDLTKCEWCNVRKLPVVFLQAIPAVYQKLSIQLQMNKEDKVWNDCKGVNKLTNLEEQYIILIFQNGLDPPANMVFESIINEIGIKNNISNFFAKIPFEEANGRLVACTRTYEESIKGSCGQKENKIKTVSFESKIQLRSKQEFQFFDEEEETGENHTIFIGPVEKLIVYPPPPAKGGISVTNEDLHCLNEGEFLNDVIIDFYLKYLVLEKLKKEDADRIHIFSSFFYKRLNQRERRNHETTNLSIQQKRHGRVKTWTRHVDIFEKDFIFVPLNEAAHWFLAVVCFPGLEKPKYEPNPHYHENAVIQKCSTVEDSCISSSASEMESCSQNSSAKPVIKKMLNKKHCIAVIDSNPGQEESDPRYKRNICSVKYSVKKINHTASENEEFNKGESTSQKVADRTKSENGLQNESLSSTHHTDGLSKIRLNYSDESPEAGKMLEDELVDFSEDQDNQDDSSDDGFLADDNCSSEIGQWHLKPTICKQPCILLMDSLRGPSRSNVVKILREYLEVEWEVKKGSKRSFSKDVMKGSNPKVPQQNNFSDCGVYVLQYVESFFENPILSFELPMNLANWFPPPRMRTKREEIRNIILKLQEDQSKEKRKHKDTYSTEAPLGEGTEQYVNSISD
The test is described as follows: SENP6 protease inhibitors, SAR follow-up, biochemical, luminescence, set 2 (AID 588598). The format is functional.

Test [13] concerns the target T4, Sentrin-specific protease 7 (Homo sapiens, UniProt Q9BQF6).
T4 sequence (Q9BQF6 whole entry): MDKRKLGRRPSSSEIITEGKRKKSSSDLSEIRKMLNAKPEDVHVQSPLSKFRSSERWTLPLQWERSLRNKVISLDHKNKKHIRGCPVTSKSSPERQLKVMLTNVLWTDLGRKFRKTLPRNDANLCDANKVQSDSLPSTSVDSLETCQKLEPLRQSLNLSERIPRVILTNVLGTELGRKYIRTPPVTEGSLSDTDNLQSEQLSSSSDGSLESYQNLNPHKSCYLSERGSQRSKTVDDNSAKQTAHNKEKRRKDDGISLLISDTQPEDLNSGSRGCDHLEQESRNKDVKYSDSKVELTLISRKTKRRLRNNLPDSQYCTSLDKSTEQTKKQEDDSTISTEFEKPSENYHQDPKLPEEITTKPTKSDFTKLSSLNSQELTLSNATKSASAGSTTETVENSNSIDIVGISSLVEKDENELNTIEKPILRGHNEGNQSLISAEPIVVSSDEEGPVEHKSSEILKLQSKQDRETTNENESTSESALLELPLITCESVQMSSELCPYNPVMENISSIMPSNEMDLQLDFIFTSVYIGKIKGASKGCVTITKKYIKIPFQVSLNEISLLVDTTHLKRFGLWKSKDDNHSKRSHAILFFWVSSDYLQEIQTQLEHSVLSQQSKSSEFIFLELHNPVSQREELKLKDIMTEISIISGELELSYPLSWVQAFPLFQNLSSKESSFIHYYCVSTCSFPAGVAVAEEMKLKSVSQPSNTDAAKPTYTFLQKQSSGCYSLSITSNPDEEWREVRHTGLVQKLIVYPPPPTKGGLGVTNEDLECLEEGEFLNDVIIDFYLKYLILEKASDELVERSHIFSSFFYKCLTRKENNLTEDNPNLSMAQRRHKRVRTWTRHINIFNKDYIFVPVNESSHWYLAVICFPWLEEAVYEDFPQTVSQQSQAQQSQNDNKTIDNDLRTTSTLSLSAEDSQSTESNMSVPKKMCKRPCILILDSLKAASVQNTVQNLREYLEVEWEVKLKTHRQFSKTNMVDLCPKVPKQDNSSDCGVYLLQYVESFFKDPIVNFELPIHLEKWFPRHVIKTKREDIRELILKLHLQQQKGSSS
The test is described as follows: SENP7 protease inhibitors, SAR follow-up, biochemical, luminescence, set 2 (AID 588600). The format is functional.

The source made the active and inactive calls. Unless noted, no cut-off for these calls is given here.

Cyclin-dependent kinase 19, sequence (Q9BWU1 whole entry): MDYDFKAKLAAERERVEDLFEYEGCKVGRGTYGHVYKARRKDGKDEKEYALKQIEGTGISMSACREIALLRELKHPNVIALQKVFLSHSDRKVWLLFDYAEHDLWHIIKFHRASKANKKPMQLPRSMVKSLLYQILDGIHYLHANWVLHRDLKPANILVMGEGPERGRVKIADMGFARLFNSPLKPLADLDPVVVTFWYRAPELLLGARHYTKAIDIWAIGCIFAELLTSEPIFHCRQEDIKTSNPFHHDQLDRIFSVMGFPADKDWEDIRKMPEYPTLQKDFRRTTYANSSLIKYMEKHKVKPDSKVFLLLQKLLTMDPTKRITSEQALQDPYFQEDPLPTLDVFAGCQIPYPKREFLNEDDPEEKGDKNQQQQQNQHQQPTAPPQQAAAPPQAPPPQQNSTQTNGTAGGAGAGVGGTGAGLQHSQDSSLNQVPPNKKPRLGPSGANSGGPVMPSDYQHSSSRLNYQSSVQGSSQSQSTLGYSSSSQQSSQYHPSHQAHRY
Focal adhesion kinase 1, sequence (Q05397 whole entry): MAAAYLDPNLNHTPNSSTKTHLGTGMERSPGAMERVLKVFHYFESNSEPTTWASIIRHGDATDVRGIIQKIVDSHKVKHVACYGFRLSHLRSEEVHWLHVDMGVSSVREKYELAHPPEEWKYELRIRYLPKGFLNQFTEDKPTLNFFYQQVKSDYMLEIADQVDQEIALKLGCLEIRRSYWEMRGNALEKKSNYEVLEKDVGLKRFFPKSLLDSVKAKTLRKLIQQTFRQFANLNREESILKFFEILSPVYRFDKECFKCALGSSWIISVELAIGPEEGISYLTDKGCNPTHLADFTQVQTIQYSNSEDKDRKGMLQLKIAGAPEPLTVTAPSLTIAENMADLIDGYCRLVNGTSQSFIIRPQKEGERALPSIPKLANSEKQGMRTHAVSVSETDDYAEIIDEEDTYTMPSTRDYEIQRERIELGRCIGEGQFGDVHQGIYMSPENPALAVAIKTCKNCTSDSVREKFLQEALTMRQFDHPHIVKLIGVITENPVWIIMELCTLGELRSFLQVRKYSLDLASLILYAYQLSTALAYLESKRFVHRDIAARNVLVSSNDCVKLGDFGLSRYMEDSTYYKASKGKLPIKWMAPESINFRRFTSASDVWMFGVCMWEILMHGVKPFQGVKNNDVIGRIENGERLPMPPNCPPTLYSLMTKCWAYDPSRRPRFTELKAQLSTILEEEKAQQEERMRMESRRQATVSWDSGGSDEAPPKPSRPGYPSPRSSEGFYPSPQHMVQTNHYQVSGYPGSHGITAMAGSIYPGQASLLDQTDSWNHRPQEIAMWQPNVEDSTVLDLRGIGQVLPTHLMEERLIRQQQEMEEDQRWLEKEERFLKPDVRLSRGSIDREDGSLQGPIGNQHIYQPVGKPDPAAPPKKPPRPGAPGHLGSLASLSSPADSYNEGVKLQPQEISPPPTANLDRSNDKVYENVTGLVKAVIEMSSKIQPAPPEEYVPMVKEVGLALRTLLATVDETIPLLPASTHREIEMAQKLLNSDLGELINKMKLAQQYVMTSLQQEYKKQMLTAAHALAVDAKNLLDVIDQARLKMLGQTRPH

Consider `COc1cccc(C(=O)Nc2cccc(-c3nc4sccn4c3-c3ccnc(Nc4ccc(N5CCOCC5)cc4)n3)c2)c1`, for which the Ki (usually a measure of affinity in units of concentration, obtained from inhibition or displacement) is 0.631 µM (active) in [1] and 10 µM (active) in test [2].

In the case of `O=C(NCc1ccc(C(=O)N2CCC(c3ccccc3)CC2)cc1)NC1CCCCC1`, the CC50 (in general, the concentration that lowers cell viability or growth by half) was 65.8 µM (active) in test [3], 82.5 µM (active) in test [4] and > 50 µM (inconclusive) in test [5].

Regarding `COc1ccc(S(=O)(=O)N(C)C[C@H]2Oc3c(NC(=O)Nc4cccc5ccccc45)cccc3C(=O)N([C@H](C)CO)C[C@@H]2C)cc1`, the AC50 (commonly the concentration giving half of the maximal activity seen) in [6] is 43.4 µM (active); in test [7] it was 63.9 µM (active); in test [8], 33.7 µM (active); in [9], 21.9 µM (active).

Consider `Cc1[nH]c2ccccc2c1C(=O)C(=O)N1CCCCCC1`, for which the IC50 in test [10], in test [11], in [12] and in test [13] was > 99 µM (inactive) throughout.
